This is an account of results in ChEMBL document CHEMBL1141089, “Conformationally restricted homotryptamines. 2. Indole cyclopropylmethylamines as selective serotonin reuptake inhibitors” (J Med Chem, 2005).

The target of assay [1] is T1, Sodium-dependent noradrenaline transporter (Homo sapiens, UniProt P23975). Kind of assay: Binding inhibition towards human norepinephrine transporter at 1 uM.
The target in assay [2] is T2, Sodium-dependent dopamine transporter (Homo sapiens, UniProt Q01959). Description: Binding inhibition towards human dopamine transporter at 1 uM.
The target of assay [3] is T3, Sodium-dependent serotonin transporter (Homo sapiens, UniProt P31645). Description: Binding inhibition towards human serotonin transporter.
The target in assay [4] is T2, Sodium-dependent dopamine transporter. Kind of assay: Binding inhibition towards human dopamine transporter.
The target in assay [5] is T3, Sodium-dependent serotonin transporter. Kind of assay: In vitro binding inhibition towards human serotonin transporter.
In assay [6] the target is T1, Sodium-dependent noradrenaline transporter. Description: In vitro binding affinity towards human norepinephrine transporter.

Values joined by “and” are separate entries in the source; they are usually repeats but may differ in a detail not shown here. Identical values can stand only once. Where only a bound is given, the exact number is not on record here.

T1 sequence (P23975 whole entry): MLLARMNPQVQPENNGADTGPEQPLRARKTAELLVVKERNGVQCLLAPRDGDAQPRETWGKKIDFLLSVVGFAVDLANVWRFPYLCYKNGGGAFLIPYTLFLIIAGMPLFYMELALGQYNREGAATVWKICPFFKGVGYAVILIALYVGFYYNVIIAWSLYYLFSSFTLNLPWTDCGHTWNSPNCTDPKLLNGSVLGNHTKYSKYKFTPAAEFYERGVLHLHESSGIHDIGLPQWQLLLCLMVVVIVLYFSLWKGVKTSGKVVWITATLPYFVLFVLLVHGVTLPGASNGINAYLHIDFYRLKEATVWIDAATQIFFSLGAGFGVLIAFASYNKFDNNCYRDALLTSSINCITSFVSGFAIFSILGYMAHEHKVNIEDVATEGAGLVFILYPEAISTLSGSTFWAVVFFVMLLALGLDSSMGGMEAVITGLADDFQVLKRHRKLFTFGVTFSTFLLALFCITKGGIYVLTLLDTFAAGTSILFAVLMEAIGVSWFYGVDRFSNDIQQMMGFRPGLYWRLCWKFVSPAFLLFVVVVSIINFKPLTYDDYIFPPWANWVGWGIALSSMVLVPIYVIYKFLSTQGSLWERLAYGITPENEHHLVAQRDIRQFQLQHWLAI
T3 sequence (P31645 whole entry): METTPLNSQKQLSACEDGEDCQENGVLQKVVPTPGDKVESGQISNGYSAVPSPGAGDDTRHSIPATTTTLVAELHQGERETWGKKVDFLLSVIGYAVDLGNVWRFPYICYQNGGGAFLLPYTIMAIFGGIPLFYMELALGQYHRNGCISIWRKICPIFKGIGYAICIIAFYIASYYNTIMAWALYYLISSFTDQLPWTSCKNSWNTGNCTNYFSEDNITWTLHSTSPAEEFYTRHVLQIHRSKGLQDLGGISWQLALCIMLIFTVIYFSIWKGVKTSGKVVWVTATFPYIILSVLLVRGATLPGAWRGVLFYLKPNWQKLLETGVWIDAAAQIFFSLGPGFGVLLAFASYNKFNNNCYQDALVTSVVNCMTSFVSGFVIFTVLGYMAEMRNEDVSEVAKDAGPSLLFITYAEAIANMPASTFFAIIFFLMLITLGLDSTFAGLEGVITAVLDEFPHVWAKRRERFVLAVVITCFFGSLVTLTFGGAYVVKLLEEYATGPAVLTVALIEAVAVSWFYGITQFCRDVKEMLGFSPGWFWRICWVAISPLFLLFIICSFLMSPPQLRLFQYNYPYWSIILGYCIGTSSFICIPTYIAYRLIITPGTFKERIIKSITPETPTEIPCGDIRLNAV
T2 sequence (Q01959 whole entry): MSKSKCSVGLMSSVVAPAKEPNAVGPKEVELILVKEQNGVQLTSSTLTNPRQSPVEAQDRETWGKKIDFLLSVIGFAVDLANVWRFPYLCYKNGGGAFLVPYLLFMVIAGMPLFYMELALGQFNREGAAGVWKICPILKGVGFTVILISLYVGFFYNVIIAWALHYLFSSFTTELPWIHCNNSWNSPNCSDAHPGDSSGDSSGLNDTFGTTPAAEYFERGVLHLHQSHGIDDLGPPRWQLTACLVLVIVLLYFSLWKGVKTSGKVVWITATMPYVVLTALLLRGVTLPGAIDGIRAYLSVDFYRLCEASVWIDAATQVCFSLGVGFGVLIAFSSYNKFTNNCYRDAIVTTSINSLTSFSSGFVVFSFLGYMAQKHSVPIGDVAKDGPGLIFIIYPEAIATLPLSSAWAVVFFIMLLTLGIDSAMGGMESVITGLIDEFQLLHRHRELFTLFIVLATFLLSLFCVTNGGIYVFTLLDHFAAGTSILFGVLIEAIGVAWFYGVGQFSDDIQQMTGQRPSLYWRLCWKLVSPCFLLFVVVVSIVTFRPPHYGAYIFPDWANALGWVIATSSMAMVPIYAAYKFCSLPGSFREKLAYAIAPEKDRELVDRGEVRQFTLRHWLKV

As to `CN(C)C[C@@H]1C[C@@H]1c1c[nH]c2ccc(F)cc12` (stereo in doubt; 16e) [listing 1 of 2 here], the inhibition in assay [1] and in assay [2] was less than 50% throughout.
With `CN(C)C[C@H]1C[C@@H]1c1c[nH]c2ccc(F)cc12` [listing 1 of 2 here], the inhibition in assay [1] and in assay [2] was less than 50% in each case.
For `CN(C)C[C@@H]1C[C@@H]1c1c[nH]c2ccc(C#N)cc12` [listing 1 of 3 here], the inhibition in assay [1] and in assay [2] was less than 50% in each case.
Turning to `CN(C)C[C@H]1C[C@@H]1c1c[nH]c2c(C#N)cccc12` (racemic), the inhibition in assay [1] and in assay [2] was less than 50% throughout. Moreover, the Ki (as a rule, the dissociation constant of the complex between target and ligand, obtained from inhibition or displacement) in assay [3] is 0.58 nM.
In the case of `CN(C)C[C@H]1C[C@@H]1c1c[nH]c2cccc(C#N)c12` (racemic), the Ki in assay [3] is 230 nM and 420 nM.
On to `CN(C)C[C@@H]1C[C@H]1c1c[nH]c2ccc(C#N)cc12`, for which the inhibition in assay [1] and in assay [2] was less than 50% in each case. In addition, the Ki in assay [3] stood at 8.9 nM.
`CN(C)C[C@H]1C[C@@H]1c1c[nH]c2ccc(F)cc12` [listing 2 of 2 here] showed a Ki in assay [3] of 0.68 nM.
For the molecule `CN(C)CCCc1c[nH]c2ccc(C#N)cc12`, the inhibition in assay [1] and in assay [2] was less than 50% throughout. Further, the Ki in assay [3] was 2 nM.
Consider `CN(C)C[C@H]1C[C@@H]1c1c[nH]c2c(F)cccc12` (racemic), for which the inhibition in assay [1] and in assay [2] was less than 50% each time. This molecule also had a Ki in assay [3] of 10 nM.
For the molecule `CN(C)C[C@H]1C[C@@H]1c1c[nH]c2cc(F)ccc12` (racemic), the inhibition in assay [1] and in assay [2] was less than 50% each time. In assay [3], this molecule showed a Ki of 38 nM.
As for `CN(C)C[C@H]1C[C@@H]1c1c[nH]c2cccc(F)c12` (racemic), the inhibition in assay [1] and in assay [2] was less than 50% each time. Further, in assay [3], the affinity, expressed as Ki, was 59 nM.
`CN(C)C[C@@H]1C[C@@H]1c1c[nH]c2ccc(C#N)cc12` [listing 2 of 3 here] yielded a Ki in assay [3] of 7.1 nM.
Still for that read-out and setting: in the case of `CN(C)C[C@H]1C[C@H]1c1c[nH]c2ccc(F)cc12` it was 100 nM.
For `CN(C)C[C@H]1C[C@@H]1c1c[nH]c2ccc(C#N)cc12`, the Ki in assay [4] is 2100 nM; in assay [5], 0.18 nM; in assay [6] it was 4600 nM.
Consider `CN(C)C[C@H]1C[C@@H]1c1c[nH]c2cc(C#N)ccc12` (racemic), for which the inhibition in assay [1] and in assay [2] was less than 50% throughout. Moreover, the Ki in assay [3] amounted to 7.4 nM.
`CN(C)C[C@@H]1C[C@H]1c1c[nH]c2ccc(F)cc12`: the inhibition in assay [1] and in assay [2] was less than 50% each time. The molecule further registered a Ki in assay [3] of 41 nM.
For the molecule `CN(C)C[C@H]1C[C@@H]1c1c[nH]c2ccc(F)cc12` (racemic) [listing 1 of 2 here], the inhibition in assay [1] and in assay [2] was less than 50% each time.
Molecule `CN(C)C[C@@H]1C[C@@H]1c1c[nH]c2ccc(C#N)cc12` [listing 3 of 3 here] came in with a Ki in assay [3] of 17 nM.
On the same count and under the same terms, under `CN(C)C[C@H]1C[C@@H]1c1c[nH]c2ccc(F)cc12` (racemic) [listing 2 of 2 here] stands 2.1 nM.
In the case of `CN(C)C[C@H]1C[C@@H]1c1cn(C)c2ccc(C#N)cc12`, the inhibition in assay [1] and in assay [2] was less than 50% throughout. The molecule also registered a Ki in assay [3] of 6.5 nM.
`CN(C)C[C@@H]1C[C@@H]1c1c[nH]c2ccc(F)cc12` (stereo in doubt; 16e) [listing 2 of 2 here] yielded a Ki in assay [3] of 24 nM.
On the same count and under the same terms, under `CN(C)C[C@@H]1C[C@@H]1c1c[nH]c2ccc(F)cc12` (stereo in doubt; (-)-16e) [listing 1 of 2 here] stands 14 nM.
As to `CN(C)C[C@@H]1C[C@@H]1c1c[nH]c2ccc(F)cc12` (stereo in doubt; (-)-16e) [listing 2 of 2 here], the inhibition in assay [1] and in assay [2] was less than 50% throughout.
Regarding `CCn1cc([C@H]2C[C@@H]2CN(C)C)c2cc(C#N)ccc21`, the inhibition in assay [1] and in assay [2] was less than 50% throughout. Further, the affinity in assay [3] corresponds to a Ki of 1.8 nM.
Molecule `CN(C)C[C@H]1C[C@@H]1c1c[nH]c2ccc(C#N)cc12` (racemic) [listing 1 of 2 here] yielded a Ki in assay [3] of 0.56 nM.
Consider `CN(C)C[C@H]1C[C@@H]1c1c[nH]c2ccc(C#N)cc12` (racemic) [listing 2 of 2 here], for which the inhibition in assay [1] and in assay [2] was less than 50% each time.
For `CN(C)CCCc1c[nH]c2ccc(F)cc12`, the inhibition in assay [1] and in assay [2] was less than 50% each time. For the same molecule, in assay [3], the affinity corresponds to a Ki of 4 nM.
Consider `CN(C)C[C@H]1C[C@H]1c1c[nH]c2ccc(C#N)cc12`, for which the inhibition in assay [1] and in assay [2] was less than 50% throughout. This molecule registered a Ki in assay [3] of 5.7 nM.
